ChEMBL document CHEMBL6109114, “Design, synthesis, and biological evaluation of 4-(2-fluorophenoxy)pyridine derivatives as novel FLT3-ITD inhibitors” (Eur J Med Chem, 2025)
The source made the active and inactive calls. The calls are words filed in the database; no cut-off is given here.

Key:
[1] = tested on: MV4-11; test: Antiproliferative activity against human MV4-11 cells harbouring FLT3-ITD assessed as inhibition of cell growth measured after 3 days by celltiter-glo luminescent cell viability assay; format: functional, cell-based; conditions: MV4-11, 72 h
[2] = tested on: MOLM-13; test: Antiproliferative activity against human MOLM-13 cells harbouring FLT3-ITD assessed as inhibition of cell growth measured after 3 days by celltiter-glo luminescent cell viability assay; format: functional, cell-based; conditions: MOLM-13, 72 h
[3] = biological target: Mast/stem cell growth factor receptor Kit (Homo sapiens) (UniProt P10721); test: Inhibition of human c-Kit at 1 uM by Eurofins-DiscoverX assay
[4] = biological target: Cyclin-dependent kinase 5/CDK5 activator 1 (Homo sapiens) (UniProt Q00535+Q15078); test: Inhibition of human CDK5/p25 at 1 uM by Eurofins-DiscoverX assay; format: protein-complex assay
[5] = biological target: CDK4/Cyclin D3 (Homo sapiens) (UniProt P11802+P30281); test: Inhibition of human CDK4/cyclinD3 at 1 uM by Eurofins-DiscoverX assay; format: protein-complex assay
[6] = biological target: CDK6/cyclin D3 (Homo sapiens) (UniProt P30281+Q00534); test: Inhibition of human CDK6/cyclinD3 assessed as remaining activity at 1 uM by Eurofins-DiscoverX assay relative to control; format: protein-complex assay
[7] = tested on: BaF3; test: Antiproliferative activity against mouse BaF3 cells harbouring TEL-KIT assessed as inhibition of cell growth measured after 3 days by celltiter-glo luminescent cell viability assay; format: functional, cell-based; conditions: BaF3, 72 h
[8] = tested on: BaF3; test: Antiproliferative activity against mouse BaF3 cells harbouring TEL-FLT3 assessed as inhibition of cell growth measured after 3 days by celltiter-glo luminescent cell viability assay; format: functional, cell-based; conditions: BaF3, 72 h
[9] = tested on: BaF3; test: Antiproliferative activity against mouse BaF3 cells harbouring FLT3-ITD-D835Y mutant assessed as inhibition of cell growth measured after 3 days by celltiter-glo luminescent cell viability assay; format: functional, cell-based; conditions: BaF3, 72 h
[10] = tested on: MOLM-13; test: Induction of apoptosis in human MOLM-13 cells assessed as early apoptotic cells at 0.1 uM incubated for 48 hrs by Annexin V-FITC/PI staining based flow cytometry analysis (reference value: 4.93%); format: functional
[11] = tested on: MOLM-13; test: Induction of apoptosis in human MOLM-13 cells assessed as early apoptotic cells at 1 uM incubated for 48 hrs by Annexin V-FITC/PI staining based flow cytometry analysis (reference value: 4.93%); format: functional
[12] = tested on: MOLM-13; test: Induction of apoptosis in human MOLM-13 cells assessed as necrotic cells at 0.1 uM incubated for 48 hrs by Annexin V-FITC/PI staining based flow cytometry analysis (reference value: 0.077%); format: functional
[13] = tested on: MOLM-13; test: Induction of apoptosis in human MOLM-13 cells assessed as necrotic cells at 0.3 uM incubated for 48 hrs by Annexin V-FITC/PI staining based flow cytometry analysis (reference value: 0.077%); format: functional
[14] = tested on: MOLM-13; test: Induction of cell cycle arrest in human MOLM-13 cells assessed as accumulation of cells at G1 phase at 0.1 uM incubated for 48 hrs (reference value: 40.3%); format: functional
[15] = tested on: MOLM-13; test: Induction of cell cycle arrest in human MOLM-13 cells assessed as accumulation of cells at S phase at 0.3 uM incubated for 48 hrs (reference value: 41.6%); format: functional
[16] = Metabolic stability in Sprague-Dawley rat liver microsomes assessed as half life at 1 uM measured up to 60 mins in presence of NADPH regenerating system by LC-MS/MS analysis; format: ADME, Microsome
[17] = Metabolic stability in Sprague-Dawley rat liver microsomes assessed as parent compound remaining at 1 uM measured after 60 mins by LC-MS/MS analysis; format: ADME, Microsome; conditions: read-out: Stability
[18] = Metabolic stability in Beagle dog liver microsomes assessed as parent compound remaining at 1 uM measured after 60 mins in presence of NADPH regenerating system by LC-MS/MS analysis; format: ADME, Canis lupus familiaris, Microsome; conditions: read-out: Stability
[19] = biological target: CYP2D6 (Homo sapiens, UniProt P10635); test: Inhibition of CYP2D6 in human liver microsomes using dextromethorphan as substrate at 10 uM incubated for 10 mins in presence of NADPH by LC-MS/MS analysis relative to control; format: ADME, Microsome; conditions: probe dextromethorphan
[20] = biological target: CYP3A4 (Homo sapiens, UniProt P08684); test: Inhibition of CYP3A4 in human liver microsomes using midazolam as substrate at 10 uM incubated for 10 mins in presence of NADPH by LC-MS/MS analysis relative to control; format: ADME, Microsome; conditions: probe midazolam
[21] = biological target: Voltage-gated inwardly rectifying potassium channel KCNH2 (Homo sapiens, UniProt Q12809); test: Inhibition of human ERG expressed in CHO cells by Qpatch assay; format: toxicity, cell-based
[22] = Half life in mouse at 5 mg/kg, iv; format: ADME, organism-based; conditions: in vivo
[23] = AUC (0 to infinity) in mouse at 5 mg/kg, iv; format: ADME, organism-based; conditions: in vivo
[24] = Half life in mouse at 10 mg/kg, po; format: ADME, organism-based; conditions: in vivo
[25] = Cmax in mouse at 10 mg/kg, po; format: ADME, organism-based; conditions: in vivo

Chain of Voltage-gated inwardly rectifying potassium channel KCNH2 (Q12809 whole entry): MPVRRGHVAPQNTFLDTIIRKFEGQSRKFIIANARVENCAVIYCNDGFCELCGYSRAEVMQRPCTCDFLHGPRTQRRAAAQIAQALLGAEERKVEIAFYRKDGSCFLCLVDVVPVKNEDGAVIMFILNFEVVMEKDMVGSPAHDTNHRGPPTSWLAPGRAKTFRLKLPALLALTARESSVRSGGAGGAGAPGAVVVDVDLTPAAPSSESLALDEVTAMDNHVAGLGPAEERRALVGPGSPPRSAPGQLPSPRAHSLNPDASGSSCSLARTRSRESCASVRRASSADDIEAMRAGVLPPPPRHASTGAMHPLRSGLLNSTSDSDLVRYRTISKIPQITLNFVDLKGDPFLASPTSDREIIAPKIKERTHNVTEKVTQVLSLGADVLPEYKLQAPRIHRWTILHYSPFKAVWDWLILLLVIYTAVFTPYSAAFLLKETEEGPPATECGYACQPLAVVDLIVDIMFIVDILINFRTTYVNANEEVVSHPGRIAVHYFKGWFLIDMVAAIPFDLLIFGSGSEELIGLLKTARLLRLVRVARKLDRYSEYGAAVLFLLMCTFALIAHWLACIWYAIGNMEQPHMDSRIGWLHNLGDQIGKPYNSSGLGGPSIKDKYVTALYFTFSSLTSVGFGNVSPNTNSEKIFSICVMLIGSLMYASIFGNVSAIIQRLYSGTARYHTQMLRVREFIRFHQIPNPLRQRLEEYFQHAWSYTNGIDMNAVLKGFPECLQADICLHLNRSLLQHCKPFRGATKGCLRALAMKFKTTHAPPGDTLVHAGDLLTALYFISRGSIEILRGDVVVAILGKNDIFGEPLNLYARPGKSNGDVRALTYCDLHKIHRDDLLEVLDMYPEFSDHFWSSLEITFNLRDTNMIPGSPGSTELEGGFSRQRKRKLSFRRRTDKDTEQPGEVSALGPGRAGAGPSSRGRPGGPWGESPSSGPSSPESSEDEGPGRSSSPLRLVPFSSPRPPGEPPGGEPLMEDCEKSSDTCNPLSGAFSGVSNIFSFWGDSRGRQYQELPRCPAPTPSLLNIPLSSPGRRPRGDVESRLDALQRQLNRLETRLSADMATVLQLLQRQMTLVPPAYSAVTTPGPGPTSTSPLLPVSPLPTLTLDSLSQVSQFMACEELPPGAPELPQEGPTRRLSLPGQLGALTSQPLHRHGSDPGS
Chain of Mast/stem cell growth factor receptor Kit (Homo sapiens) (P10721 whole entry): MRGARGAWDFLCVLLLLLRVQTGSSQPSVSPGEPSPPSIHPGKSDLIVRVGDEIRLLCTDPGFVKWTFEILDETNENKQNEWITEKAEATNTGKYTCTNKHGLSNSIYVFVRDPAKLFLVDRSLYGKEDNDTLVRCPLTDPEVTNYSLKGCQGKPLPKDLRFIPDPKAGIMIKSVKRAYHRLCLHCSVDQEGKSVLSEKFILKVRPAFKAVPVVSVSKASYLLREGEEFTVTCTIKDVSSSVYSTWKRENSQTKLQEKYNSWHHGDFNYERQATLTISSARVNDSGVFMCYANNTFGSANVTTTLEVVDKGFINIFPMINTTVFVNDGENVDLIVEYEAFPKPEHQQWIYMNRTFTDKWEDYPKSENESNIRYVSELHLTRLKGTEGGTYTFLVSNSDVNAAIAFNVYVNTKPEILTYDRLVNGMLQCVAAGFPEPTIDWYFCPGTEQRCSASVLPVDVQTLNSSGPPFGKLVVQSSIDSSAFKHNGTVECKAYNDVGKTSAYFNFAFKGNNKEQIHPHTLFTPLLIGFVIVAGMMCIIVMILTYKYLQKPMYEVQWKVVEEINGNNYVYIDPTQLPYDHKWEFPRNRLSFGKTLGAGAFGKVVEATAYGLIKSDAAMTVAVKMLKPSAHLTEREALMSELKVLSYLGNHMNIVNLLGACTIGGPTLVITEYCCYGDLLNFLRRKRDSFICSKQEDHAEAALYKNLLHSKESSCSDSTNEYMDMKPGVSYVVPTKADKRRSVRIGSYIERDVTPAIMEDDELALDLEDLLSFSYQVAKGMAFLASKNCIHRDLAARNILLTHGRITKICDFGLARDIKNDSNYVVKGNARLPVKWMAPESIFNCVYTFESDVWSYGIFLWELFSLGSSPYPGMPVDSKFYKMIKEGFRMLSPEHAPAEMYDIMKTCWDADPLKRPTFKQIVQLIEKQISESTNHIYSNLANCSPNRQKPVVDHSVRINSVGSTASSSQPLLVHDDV
Chain of CYP3A4 (P08684 whole entry): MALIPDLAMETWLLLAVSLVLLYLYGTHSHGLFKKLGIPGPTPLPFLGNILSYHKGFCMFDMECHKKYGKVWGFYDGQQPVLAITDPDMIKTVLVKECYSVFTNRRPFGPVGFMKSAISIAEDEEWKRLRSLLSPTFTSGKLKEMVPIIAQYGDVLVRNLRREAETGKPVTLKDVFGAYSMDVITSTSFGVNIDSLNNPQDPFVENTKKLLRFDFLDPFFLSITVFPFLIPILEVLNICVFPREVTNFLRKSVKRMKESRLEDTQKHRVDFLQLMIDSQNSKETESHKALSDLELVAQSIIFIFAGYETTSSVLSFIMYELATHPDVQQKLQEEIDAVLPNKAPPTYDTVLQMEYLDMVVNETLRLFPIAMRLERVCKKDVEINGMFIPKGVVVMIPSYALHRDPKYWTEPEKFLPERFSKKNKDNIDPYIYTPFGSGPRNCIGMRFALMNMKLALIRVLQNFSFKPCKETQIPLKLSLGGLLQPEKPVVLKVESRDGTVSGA
Chain of CYP2D6 (P10635 whole entry): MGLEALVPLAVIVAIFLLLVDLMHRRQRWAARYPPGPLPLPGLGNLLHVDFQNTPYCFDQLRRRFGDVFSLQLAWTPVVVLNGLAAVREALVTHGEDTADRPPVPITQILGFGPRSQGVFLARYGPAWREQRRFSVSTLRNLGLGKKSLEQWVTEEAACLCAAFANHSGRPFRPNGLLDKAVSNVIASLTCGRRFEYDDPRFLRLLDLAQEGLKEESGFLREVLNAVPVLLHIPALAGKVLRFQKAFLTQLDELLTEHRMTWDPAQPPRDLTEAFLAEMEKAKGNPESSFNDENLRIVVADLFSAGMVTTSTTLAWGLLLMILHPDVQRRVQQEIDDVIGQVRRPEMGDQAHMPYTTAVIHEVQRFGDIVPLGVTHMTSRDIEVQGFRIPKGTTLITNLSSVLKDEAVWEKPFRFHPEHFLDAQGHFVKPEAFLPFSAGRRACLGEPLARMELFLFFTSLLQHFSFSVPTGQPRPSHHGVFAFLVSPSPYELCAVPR
Chain of Cyclin-dependent kinase 5/CDK5 activator 1 (Homo sapiens) (Q00535 whole entry): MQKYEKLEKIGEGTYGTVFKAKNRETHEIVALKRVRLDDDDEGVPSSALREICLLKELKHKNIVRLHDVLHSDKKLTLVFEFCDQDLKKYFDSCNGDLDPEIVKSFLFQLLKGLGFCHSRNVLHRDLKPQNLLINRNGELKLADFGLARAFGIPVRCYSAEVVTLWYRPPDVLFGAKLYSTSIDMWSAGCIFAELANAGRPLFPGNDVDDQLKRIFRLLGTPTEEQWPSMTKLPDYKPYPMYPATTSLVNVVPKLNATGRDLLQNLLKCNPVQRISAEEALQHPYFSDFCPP
Chain of Cyclin-dependent kinase 5/CDK5 activator 1 (Homo sapiens) (Q15078 99-307 partner limits assumed): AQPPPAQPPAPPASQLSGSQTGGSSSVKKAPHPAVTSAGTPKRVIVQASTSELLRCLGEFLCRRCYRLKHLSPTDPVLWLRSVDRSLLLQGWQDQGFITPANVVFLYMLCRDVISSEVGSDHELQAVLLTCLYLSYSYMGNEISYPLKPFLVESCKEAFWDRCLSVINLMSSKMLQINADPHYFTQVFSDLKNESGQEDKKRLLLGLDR

For Cc1cc(=O)n(-c2cc(Cl)ccc2F)nc1C(=O)Nc1ccc(Oc2ccnc(NC(=O)N3CC(O)C3)c2)c(F)c1, the IC50 [1] was 0.39 µM, the IC50 [2] was 0.14 µM and the inhibition [3] was “inactive”. For the same molecule, the inhibition [4] was “inactive”, the inhibition [5] was “inactive” and the Activity [6] was 88%. For the same molecule, the IC50 [7] was > 10 µM, the IC50 [8] was 3.69 µM and the IC50 [9] was 6.6 µM. For the same molecule, the Activity [10] was 5.69%, the Activity [11] was 29.6% and the Activity [12] was 0.062%. For the same molecule, the Activity [13] was 0.068%, the Activity [14] was 50.1% and the Activity [15] was 17.1%. It also gave a half-life at 1 µM [16] of 1.95 h, a remaining at 1 h, 1 µM [17] of 108% and a remaining at 1 h, 1 µM [18] of 72.7%. For the same molecule, the inhibition at 10 min, 10 µM [19] was 19.8%, the inhibition at 10 min, 10 µM [20] was 34.2% and the IC50 [21] was > 30 µM. It also gave a half-life [22] of 6.57 h, an AUC(0-inf) [23] of 2210 ng·h/mL and a half-life [24] of 1.83 h. The Cmax [25] was 306 ng/mL.
